From publication PMC6440977, “Nucleoside analogue activators of cyclic AMP-independent protein kinase A of Trypanosoma” (Nature Communications, 2019)
“And” between values parts separate entries of the source, which are not always exact repeats. Identical values can stand only once. Like-named read-outs stand apart in the source and are kept apart here.

Key:
[1] = tested on: T. brucei PKA holoenzyme (Ty1-PKAC1); type: biochemical, Trypanosoma brucei; conditions: for in vitro kinase assay [CPM], average: average of 3; for in vitro kinase assay [CPM]: independent replicates
[2] = tested on: T. brucei PKA holoenzyme (PKAR-Ty1); type: biochemical, Trypanosoma brucei; conditions: for in vitro kinase assay [CPM], average: average of 3; for in vitro kinase assay [CPM]: independent replicates
[3] = tested on: T. brucei PKA holoenzyme (HA-PKAC2); type: biochemical, Trypanosoma brucei; conditions: for in vitro kinase assay [CPM], average: average of 3; for in vitro kinase assay [CPM]: independent replicates
T. brucei PKA [4] = target: T1, T. brucei PKA (Trypanosoma brucei brucei, UniProt Q9GU80); conditions: ref Shalaby et al. (reference 23 in manuscript); cited from earlier work
[5] = tested on: RXXS*/T* site phosphorylation; assay: Western blot of global RXXS*/T* site phosphorylation (phospho-PKA substrate antibody); type: cell-based, Trypanosoma brucei; conditions: wild type, 2 µM, 10 min
human PKARIα = target: T2, human PKARIα (Homo sapiens, UniProt P10644); assay: Binding by isothermal titration calorimetry (ITC)
T2 construct: The full length ORFs (amplified with primers introducing the respective); 6xHis followed by TEV site (N); made in house; host or cells: E. coli Rosetta D3

[6] = target: T. brucei PKAR-PKAC1 holoenzyme (Trypanosoma brucei, UniProt Q9GU80); assay: biochemical; type: biochemical; conditions: for In vitro kinase assay: technical replicates
T. brucei BSF cells (WT) = assay: Alamar blue cell viability assay, wild type; conditions: for EC50: wild type cells;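 on all read-outs here: trypanosomes seeded at 5×10^3 per ml and grown 72 h with compound, then resazurin 0.5 mM added for 4 h as the viability read-out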
metacaspase 4 (MCA4) = type: cell-based, Trypanosoma brucei; conditions: for MCA4 counts / MCA4 normalized / MCA4 fold change: 4 µM; for MCA4 normalized: normalized to PFR-A/C; for MCA4 fold change: untreated WT set to 1
[7] = target: T3, mammalian PKARIα2–2PKACα holoenzyme (Homo sapiens, UniProt P10644); assay: In vitro kinase assay with purified mammalian holoenzyme; type: biochemical, human PKARIα, mouse PKACα; conditions: for In vitro kinase assay: technical replicates
T3 construct: The full length ORFs (amplified with primers introducing the respective); made in house; host or cells: E. coli strain APE304 (adenylate cyclase-deficient)

[8] = tested on: T. brucei ∆pkar/∆pkar (pkar KO) cells; assay: microbe, parasite or virus in culture; type: cell-based, Trypanosoma brucei; conditions: for EC50: pkar KO cells
T. brucei PKAR(199–499) = T. brucei PKAR(199–499) (Trypanosoma brucei, UniProt Q9GU80); assay: biochemical; type: binding; set-up: Thermodynamics (ITC) -TΔS / Thermodynamics (ITC) ΔG / Thermodynamics (ITC) ΔH: unit: kcal/mol
PKAC1/2 = type: cell-based, Trypanosoma brucei; conditions: 4 µM; for PKAC1/2 normalized: normalized to PFR-A/C; for PKAC1/2 fold change: untreated WT set to 1;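 on all read-outs here: trypanosoma brucei cells, PKAC1/2 signal from western blots read on an infrared fluorescence scanning system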
T. brucei PKA [9] = target: T1, T. brucei PKA; assay: In vivo PKA reporter assay (VASP Ser-157 phosphorylation, western blot); type: cell-based;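 further: T. brucei cells expressing human VASP as heterologous PKA substrate, compound exposure at 37 °C, western blot of phospho (50 kDa) versus unphosphorylated (46 kDa) VASP band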

T3 sequence (P10644 whole entry): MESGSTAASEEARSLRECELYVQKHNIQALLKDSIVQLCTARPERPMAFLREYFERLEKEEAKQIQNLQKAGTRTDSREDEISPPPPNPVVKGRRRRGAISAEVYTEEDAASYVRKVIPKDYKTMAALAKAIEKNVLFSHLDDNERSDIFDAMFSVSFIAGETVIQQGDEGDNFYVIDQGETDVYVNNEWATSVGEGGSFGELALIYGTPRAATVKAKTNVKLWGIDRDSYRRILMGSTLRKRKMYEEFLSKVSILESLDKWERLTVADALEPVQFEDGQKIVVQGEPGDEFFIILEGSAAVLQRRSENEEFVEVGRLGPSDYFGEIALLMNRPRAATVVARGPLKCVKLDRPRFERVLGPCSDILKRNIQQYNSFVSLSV
Chain of T. brucei PKAR-PKAC1 holoenzyme (Q38DR5 entry or part of it): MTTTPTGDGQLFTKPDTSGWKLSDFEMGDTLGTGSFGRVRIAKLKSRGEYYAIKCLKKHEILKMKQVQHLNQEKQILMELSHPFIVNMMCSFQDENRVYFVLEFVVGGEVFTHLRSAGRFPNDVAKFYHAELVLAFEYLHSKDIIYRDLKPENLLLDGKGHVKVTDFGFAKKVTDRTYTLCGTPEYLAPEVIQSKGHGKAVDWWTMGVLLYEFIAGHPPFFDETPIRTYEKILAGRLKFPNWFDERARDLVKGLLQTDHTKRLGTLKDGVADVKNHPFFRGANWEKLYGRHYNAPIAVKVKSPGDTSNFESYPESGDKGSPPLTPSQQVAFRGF
Chain of T. brucei PKAR-PKAC1 holoenzyme (Q9GU80 entry or part of it): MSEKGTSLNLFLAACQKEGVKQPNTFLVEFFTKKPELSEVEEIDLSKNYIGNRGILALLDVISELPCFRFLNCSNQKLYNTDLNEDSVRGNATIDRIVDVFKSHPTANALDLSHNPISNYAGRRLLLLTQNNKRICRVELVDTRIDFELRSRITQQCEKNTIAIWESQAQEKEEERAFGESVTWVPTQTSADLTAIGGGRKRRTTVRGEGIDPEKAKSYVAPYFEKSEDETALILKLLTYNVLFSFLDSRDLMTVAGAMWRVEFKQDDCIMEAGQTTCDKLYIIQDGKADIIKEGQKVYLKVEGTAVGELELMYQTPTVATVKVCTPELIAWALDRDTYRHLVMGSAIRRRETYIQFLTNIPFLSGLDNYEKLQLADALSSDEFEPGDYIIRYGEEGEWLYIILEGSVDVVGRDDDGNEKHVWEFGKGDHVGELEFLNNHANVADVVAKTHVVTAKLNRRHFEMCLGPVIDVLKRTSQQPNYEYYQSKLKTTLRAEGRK
Chain of T. brucei PKAR(199–499) (Q9GU80 entry or part of it): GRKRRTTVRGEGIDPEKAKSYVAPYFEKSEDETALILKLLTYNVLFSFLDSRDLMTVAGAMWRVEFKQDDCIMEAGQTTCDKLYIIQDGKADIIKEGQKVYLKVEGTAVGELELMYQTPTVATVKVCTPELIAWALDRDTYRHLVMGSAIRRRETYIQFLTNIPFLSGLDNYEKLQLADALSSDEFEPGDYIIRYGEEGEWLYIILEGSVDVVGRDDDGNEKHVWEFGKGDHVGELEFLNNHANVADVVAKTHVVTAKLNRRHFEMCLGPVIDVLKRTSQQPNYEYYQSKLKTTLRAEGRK
T1 sequence (Q38DS1 entry or part of it): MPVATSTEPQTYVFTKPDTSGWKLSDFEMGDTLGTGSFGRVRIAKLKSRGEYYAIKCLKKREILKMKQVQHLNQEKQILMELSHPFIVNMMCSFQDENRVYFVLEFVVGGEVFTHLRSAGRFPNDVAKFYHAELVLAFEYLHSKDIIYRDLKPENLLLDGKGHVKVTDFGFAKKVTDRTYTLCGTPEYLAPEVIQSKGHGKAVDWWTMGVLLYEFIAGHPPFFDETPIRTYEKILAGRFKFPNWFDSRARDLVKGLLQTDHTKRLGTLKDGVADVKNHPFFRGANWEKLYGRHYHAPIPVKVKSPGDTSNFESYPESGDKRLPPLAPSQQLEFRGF
T1 sequence (Q38DR5 entry or part of it, further chain): as the sequence (Q38DR5 entry or part of it) above
T2 sequence (P10644 whole entry): as the sequence (P10644 whole entry) above

For `Nc1nc2c(ncn2[C@@H]2O[C@@H]3COP(=O)(O)O[C@H]3[C@H]2O)c(=O)[nH]1` [cGMP], the “concentration at which the holoenzyme is activated” value [1] was at least 100 µM, the “in vitro kinase assay [CPM], PKI” value ([1]; 0.1 mM + 5 µM PKI(5-24), Supp Fig 3b) was 1147.4 CPM and the “in vitro kinase assay [CPM], average” value ([1]; 0.1 mM, Supp Fig 3b) was 13459.0 CPM. For the same compound, the “in vitro kinase assay [CPM]” value ([1]; 0.1 mM, Supp Fig 3b) was 15124.3 CPM and 11079.5 CPM and 14173.3 CPM, the “in vitro kinase assay [CPM], PKI” value ([1]; 1 mM + 5 µM PKI(5-24), Supp Fig 3b) was 3732 CPM and the “in vitro kinase assay [CPM], PKI” value ([1]; 1 mM + 5 µM PKI(5-24), Supp Fig 3c) was 1928.6 CPM. For the same compound, the “in vitro kinase assay [CPM], average” value ([1]; 1 mM, Supp Fig 3b) was 48614.9 CPM, the “in vitro kinase assay [CPM]” value ([1]; 1 mM, Supp Fig 3b) was 51091.7 CPM and 52665 CPM and 42088 CPM and the “in vitro kinase assay [CPM], average” value ([1]; 1 mM, Supp Fig 3c) was 18465.6 CPM. For the same compound, the “in vitro kinase assay [CPM]” value ([1]; 1 mM, Supp Fig 3c) was 15510 CPM and 18398 CPM and 21488.7 CPM, the “concentration at which the holoenzyme is activated” value [2] was at least 100 µM and the “in vitro kinase assay [CPM], PKI” value ([2]; 0.1 mM + 5 µM PKI(5-24)) was 1137.33 CPM. For the same compound, the “in vitro kinase assay [CPM], average” value ([2]; 0.1 mM) was 8446.6 CPM, the “in vitro kinase assay [CPM]” value ([2]; 0.1 mM) was 9140 CPM and 8772.75 CPM and 7427.05 CPM and the “in vitro kinase assay [CPM], PKI” value ([2]; 1 mM + 5 µM PKI(5-24)) was 3682.78 CPM. The “in vitro kinase assay [CPM], average” value ([2]; 1 mM) was 22856.7 CPM, the “in vitro kinase assay [CPM]” value ([2]; 1 mM) was 17347.2 CPM and 27346.7 CPM and 23876.3 CPM and the “concentration at which the holoenzyme is activated” value [3] was at least 100 µM. For the same compound, the “in vitro kinase assay [CPM], PKI” value ([3]; 0.1 mM + 5 µM PKI(5-24)) was 375.47 CPM, the “in vitro kinase assay [CPM], average” value ([3]; 0.1 mM) was 2249 CPM and the “in vitro kinase assay [CPM]” value ([3]; 0.1 mM) was 2477.88 CPM and 2206.3 CPM and 2062.83 CPM. The “in vitro kinase assay [CPM], PKI” value ([3]; 1 mM + 5 µM PKI(5-24)) was 760.33 CPM, the “in vitro kinase assay [CPM], average” value ([3]; 1 mM) was 8405.46 CPM and the “in vitro kinase assay [CPM]” value ([3]; 1 mM) was 9366.36 CPM and 9774.29 CPM and 6075.73 CPM. For the same compound, the “cGMP concentration activating T. brucei PKA” value (T. brucei PKA [4]) was at least 20 µM.
For `N#Cc1cn([C@@H]2O[C@H](CO)[C@@H](O)[C@H]2O)c2ncnc(N)c12` [Toyo, 7-Cyano-7-deazaadenosine], the “increase in global RXXS*/T* site phosphorylation” value [5] was 3–4 fold, the “binding to purified human PKARIα, in words” value (human PKARIα) was “did not bind” and the “In vitro kinase assay” value ([6]; 0.001 µM) was 0.11 U/ml and 0.14 U/ml. The “In vitro kinase assay” value ([6]; 0.01 µM) was 0.16 U/ml, the “In vitro kinase assay” value ([6]; 0.02 µM) was 0.18 U/ml and 0.15 U/ml and the “In vitro kinase assay” value ([6]; 0.04 µM) was 0.31 U/ml and 0.25 U/ml. The “In vitro kinase assay” value ([6]; 0.08 µM) was 0.3 U/ml and 0.33 U/ml, the “In vitro kinase assay” value ([6]; 0.16 µM) was 0.45 U/ml and 0.4 U/ml and the “In vitro kinase assay” value ([6]; 0.31 µM) was 0.58 U/ml and 0.64 U/ml. The “In vitro kinase assay” value ([6]; 0.63 µM) was 0.61 U/ml and 0.73 U/ml, the “In vitro kinase assay” value ([6]; 1.25 µM) was 0.71 U/ml and 0.74 U/ml and the “In vitro kinase assay” value ([6]; 2.5 µM) was 0.78 U/ml and 0.82 U/ml. For the same compound, the “In vitro kinase assay” value ([6]; 5 µM) was 0.82 U/ml and 0.75 U/ml and 4.49 U/ml and 4.39 U/ml, the EC50 ([6]; kemptide phosphorylation, mean ± SD, read-out: EC50 in vitro PKA assay) was 0.234 ± 0.092 µM and the IC50 (T. brucei BSF cells (WT); Trypanosoma brucei, 72 h, read-out: IC50 growth WT) was 0.739 ± 0.059 µM. The EC50 (T. brucei BSF cells (WT); Trypanosoma brucei, read-out: EC50, Alamar blue cell viability assay, WT, individual replicate results) was 0.866 µM, the EC50 (T. brucei BSF cells (WT); read-out: EC50, Alamar blue cell viability assay, WT, individual replicate results) was 0.746 µM and 0.898 µM and 0.614 µM and 0.641 µM and 0.51 µM and 0.901 µM and the MCA4 counts (metacaspase 4 (MCA4); WT, 12 h) was 10.96. The MCA4 normalized (metacaspase 4 (MCA4); WT, 12 h) was 7.611, the MCA4 fold change (metacaspase 4 (MCA4); WT, 12 h) was 0.5155 and the MCA4 counts (metacaspase 4 (MCA4); WT, 18 h) was 19.07. It also gave an MCA4 normalized (metacaspase 4 (MCA4); WT, 18 h) of 24.1392, an MCA4 fold change (metacaspase 4 (MCA4); WT, 18 h) of 1.635 and an MCA4 counts (metacaspase 4 (MCA4); WT, 24 h) of 23.58. The MCA4 normalized (metacaspase 4 (MCA4); WT, 24 h) was 24.8211, the MCA4 fold change (metacaspase 4 (MCA4); WT, 24 h) was 1.681 and the “MCA4 abundance, in words” value (metacaspase 4 (MCA4); later time points, PKA-independent) was “elevated”. For the same compound, the MCA4 counts (metacaspase 4 (MCA4); pkar KO, 12 h) was 13.45, the MCA4 normalized (metacaspase 4 (MCA4); pkar KO, 12 h) was 0.4781 and the MCA4 fold change (metacaspase 4 (MCA4); pkar KO, 12 h) was 0.9855. For the same compound, the MCA4 counts (metacaspase 4 (MCA4); pkar KO, 18 h) was 12.35, the MCA4 normalized (metacaspase 4 (MCA4); pkar KO, 18 h) was 0.669 and the MCA4 fold change (metacaspase 4 (MCA4); pkar KO, 18 h) was 1.379. The MCA4 counts (metacaspase 4 (MCA4); pkar KO, 24 h) was 14.17, the MCA4 normalized (metacaspase 4 (MCA4); pkar KO, 24 h) was 0.8557 and the MCA4 fold change (metacaspase 4 (MCA4); pkar KO, 24 h) was 1.764. For the same compound, the “MCA4 abundance, in words” value (metacaspase 4 (MCA4); wild type, 12 h post induction) was “decreased”, the “In vitro kinase assay” value ([7]; 0.05 µM) was 0.0536 U/ml and 0.052 U/ml and the “In vitro kinase assay” value ([7]; 0.5 µM) was 0.0466 U/ml and 0.0501 U/ml. The “In vitro kinase assay” value ([7]; 5 µM) was 0.0571 U/ml and 0.0671 U/ml, the “In vitro kinase assay” value ([7]; 50 µM) was 0.067 U/ml and 0.0605 U/ml and the “activation of mammalian PKARIα2–2PKACα holoenzyme, in words” value ([7]; up to 270-fold above EC50 for T. brucei PKA holoenzyme) was “did not activate”. The IC50 ([8]; Trypanosoma brucei, 72 h, read-out: IC50 growth pkar KO) was 0.69 ± 0.058 µM, the EC50 ([8]; Trypanosoma brucei, read-out: EC50, Alamar blue cell viability assay, KO, individual replicate results) was 0.941 µM and the EC50 ([8]; read-out: EC50, Alamar blue cell viability assay, KO, individual replicate results) was 0.768 µM and 0.56 µM and 0.61 µM and 0.492 µM and 0.666 µM and 0.791 µM. For the same compound, the Kd (T. brucei PKAR(199–499); 298 K, mean ± SD, n=3, read-out: KD in vitro binding to PKAR (ITC)) was 0.057 ± 0.025 µM, the “−TΔS (entropic component of binding)” value (T. brucei PKAR(199–499); ITC, mean) was -3.8 kJ/mol and the “Thermodynamics (ITC) -TΔS” value (T. brucei PKAR(199–499); independent replicates) was -2.01 and -0.373 and -0.411. The “Thermodynamics (ITC) ΔG” value (T. brucei PKAR(199–499); independent replicates) was -10.3 and -9.67 and -9.84, the “Thermodynamics (ITC) ΔH” value (T. brucei PKAR(199–499); independent replicates) was -8.26 and -9.3 and -9.43 and the “Molar ratio of binding (ITC)” value (T. brucei PKAR(199–499); ligand to protein, mean ± SD, n=3) was 2.1 ± 0.1. It also gave a PKAC1/2 counts (PKAC1/2; WT, 12 h) of 34.11, a PKAC1/2 normalized (PKAC1/2; WT, 12 h) of 23.6875 and a PKAC1/2 fold change (PKAC1/2; WT, 12 h) of 0.1712. For the same compound, the PKAC1/2 counts (PKAC1/2; WT, 18 h) was 35.81, the PKAC1/2 normalized (PKAC1/2; WT, 18 h) was 45.3291 and the PKAC1/2 fold change (PKAC1/2; WT, 18 h) was 0.3275. For the same compound, the PKAC1/2 counts (PKAC1/2; WT, 24 h) was 31.4, the PKAC1/2 normalized (PKAC1/2; WT, 24 h) was 33.0526 and the PKAC1/2 fold change (PKAC1/2; WT, 24 h) was 0.2388. It also gave a PKAC1/2 counts (PKAC1/2; pkar KO, 12 h) of 38.16, a PKAC1/2 normalized (PKAC1/2; pkar KO, 12 h) of 1.357 and a PKAC1/2 fold change (PKAC1/2; pkar KO, 12 h) of 0.08353. The PKAC1/2 counts (PKAC1/2; pkar KO, 18 h) was 35.91, the PKAC1/2 normalized (PKAC1/2; pkar KO, 18 h) was 1.945 and the PKAC1/2 fold change (PKAC1/2; pkar KO, 18 h) was 0.1198. For the same compound, the PKAC1/2 counts (PKAC1/2; pkar KO, 24 h) was 34.95, the PKAC1/2 normalized (PKAC1/2; pkar KO, 24 h) was 2.111 and the PKAC1/2 fold change (PKAC1/2; pkar KO, 24 h) was 0.13. For the same compound, the EC50 (T. brucei PKA [9]; VASP reporter, 15 min treatment, mean ± SD, read-out: EC50 in vivo PKA assay) was 0.088 µM and 0.0876 µM and the “induction of VASP phosphorylation in pkar knock out, in words” value (T. brucei PKA [9]; homozygous deletion of PKAR) was “did not induce phosphorylation of VASP”.
